In general, LogP refers to the decadic logarithm of the partition coefficient of the neutral form, usually between octanol and water.

The values that follow come from article PMC6587507, “Comparison of the metabolism of 10 chemicals in human and pig skin explants” (Journal of Applied Toxicology, 2018).

Where two headings read alike, the source gives them in different places.

In data set [1] the test system is pig ear skin explants. The data set is described as follows: Cutaneous distribution and mass balance of radioactivity in pig skin explants. Particulars: pig skin; for % Radioactivity in culture media after 24 h / Mass balance (% of applied dose at end of incubation): 2.4 nmol/cm^2; for Mass balance (% of applied dose at end of incubation): 48 h; for Medium radioactivity / Skin radioactivity / Skin surface radioactivity: end of incubation (48 h), mean ± SD. Here is the method:
(§1) Human abdominal skin was obtained (with consent for research from a commercial supplier [L’Union Clinic, Rangueil hospital and Icelltis, Toulouse, France] with certified ethical procedures) from six male and 34 female healthy donors, 41 ± 11 years of age, undergoing cosmetic surgery. Abdominal skin was kept at 4°C during transports and placed in culture within 3 hours of surgery. Pig ear skin was a waste product of the meat industry (without hot steam treatment) from domestic pigs (female Pietrain breed, 6 months old, 80‐100 kg) obtained from a local slaughterhouse (Montauban, France). Ears were taken from the animals within 5 minutes of slaughter and were kept at 4°C during transport to the laboratory, which lasted a maximum of 2 hours. Pig skin samples were dried and then gently shaved.
(§2) The experiment and the preparation of the culture medium were performed under sterile conditions. Human and pig skin was cut with a dermatome to a thickness of 450 ± 50 μm. Skin punches were seeded dermal side down in polycarbonate Transwell® inserts from Corning Life Sciences (Avon, France; 4.16 cm^2 application area with an 8 μm pore size filter). […] The inserts were placed in a six‐well plate containing 1.5 mL culture medium and the skin explants incubated in a standard incubator at 37°C, under an atmosphere of 5% CO2 and 50 ± 10% relative humidity. The culture medium was Dulbecco's modified Eagle medium without phenol red supplemented with 8 mM L‐glutamine, 2 μg/mL streptomycin/penicillin, 25 ng/mL fungizone and 50 ng/mL gentamycin. Skin explants were incubated for 1 hour before application of the formulation.
(§3) The dosing volume was 10 μL/cm^2. For pig skin metabolism studies, which were carried out before the human skin experiments to ensure the analytics were optimal, 2.4 nmol/cm^2 of each chemical (only the ^14C‐labeled form) was applied on the skin and incubated for 24 hours for the measurement of metabolites in the medium. These tissues were further incubated for a total of 48 hours, with a replacement of the culture medium after 24 hours. This longer incubation time and the standard doses of 2.4 nmol/cm^2 were used to maximize the likelihood of the skin forming metabolites to develop analytical methods. The metabolites profiles in pig and human skin were compared in the medium sample at 24 hours of incubation. The metabolite profiles for the 48‐hour timepoint are not reported here since humans skin metabolism was measured at 24 hours only; however, for completeness, the distribution of radioactivity at the end of both pig (48 hours) and human (24 hours) skin incubations is reported. […] The doses were obtained by mixing radiolabeled and cold chemical. One replicate disc per donor and per dose was used. All chemicals were tested on four donors of pig and human skin, except for 2‐AAF and 4‐amino‐3‐nitrophenol (4‐A‐3‐NP), for which three donors were used. The medium was removed after 24 hours of incubation and stored at −20°C for analysis.
(§4) At the end of the experiment, the trans‐wells were dismantled and washed with appropriate solvent for each chemical. […] The cotton swabs were placed in 5 mL of appropriate solvent in a scintillation counting flask and placed in a sonicator bath for 20 minutes. Aliquots of 1 mL were counted by liquid scintillation, after addition of 15 mL of scintillation liquid. Tissue culture inserts were washed with 10 mL of appropriate solvent. One aliquot of 1 mL was counted by liquid scintillation, after addition of 15 mL of scintillation liquid. After media removal, wells were washed twice with 1 mL of the appropriate solvent. Washing solutions were counted by liquid scintillation, after addition of 15 mL of scintillation liquid.
(§5) Pig skin explants were digested using 3 mL Soluable (60°C for 24 hours) and counted by liquid scintillation. Skin extraction process was adapted according to the physicochemical properties of each chemical and its potential metabolites.

Data set [2] deals with human abdominal skin explants. Briefly: Cutaneous distribution and mass balance of radioactivity in human skin explants. To be noted: human skin; for % Radioactivity in culture media after 24 h / Mass balance (% of applied dose at end of incubation): 24 h; for Medium radioactivity / Skin radioactivity / Skin surface radioactivity: end of incubation (24 h), mean ± SD. How it is done: as §1, §2, §3, §4, §5

For data set [3] the following is noted: ref Chemspider (www.chemspider.com), cited from earlier work.
In data set [4] the test system is pig ear skin explants. Particulars: pig skin; for Parent compound in the medium after 24 h: mean ± SEM; for Parent compound in the medium after 24 h / Number of metabolites detected in the culture medium: 24 h. Here is the method: as §1, §2, §3
(§6) After centrifugation, a 100 μL aliquot of the extract was counted by liquid scintillation. The pellet was dissolved in 3 mL Soluable (60°C, 24 hours) and then counted by liquid scintillation.
(§7) Analysis of the chemicals and their metabolites in medium after 24 hours of incubation with pig and human skin was measured by radio‐high‐performance liquid chromatography (HPLC) using an HPLC 1100 Series, Agilent and a Flow Scintillation Analyzer, Radiomatic 610 TR, Perkin Elmer (Villebon‐sur‐Yvette, France). […] To confirm that metabolites were the same in pig and human skin, medium samples were co‐injected on the new column. The metabolites were identified by LC‐electrospray ionization‐HRMS (HPLC‐ESI‐HRMS) with a RSLC3000 HPLC system coupled to a LTQ‐Orbitrap XL mass spectrometer (Thermo Scientific). The HPLC analytical conditions for identification and quantification of the metabolites for each chemical are summarized in Supporting information Table S1.

In data set [5] the test system is human abdominal skin explants. Here is the method:
as §1, §2, §3, §6, §7

For the molecule `CC(=O)Nc1ccc2c(c1)Cc1ccccc1-2` [2‐AAF, 2‐acetyl aminofluorene], in the data set on pig ear skin explants [1], the “% Radioactivity in culture media after 24 h” value (“% Radioactivity” below) is 52.8 ± 2.3%, the “Mass balance (% of applied dose at end of incubation)” value is 87.8 ± 1.1 % of applied dose, the Medium radioactivity is recorded as 73.9 ± 1.1 % of the applied dose and the Skin radioactivity is 12.6 ± 1.5 % of the applied dose. Besides, the Skin surface radioactivity with pig ear skin explants [1] is given as 1.4 ± 0.4 % of the applied dose. In data set [2], the “% Radioactivity” value stood at 48.3 ± 4.2%, the “Mass balance (% of applied dose at end of incubation)” value is 91.6 ± 4.5 % of applied dose, the Medium radioactivity is 48.3 ± 4.2 % of the applied dose and the Skin radioactivity was 40.5 ± 5.5 % of the applied dose. Besides, the Skin surface radioactivity in data set [2] is listed as 2.8 ± 0.3 % of the applied dose. For the same molecule, the “Maximum solubility in ethanol” value in data set [3] (in ethanol) was 9600 µg/mL. Besides, in data set [3], the LogP is recorded as 3.10 and the Maximum water solubility is 4 µg/mL.
With `Cn1c(N)nc2c3cccnc3ccc21` [IQ, 2‐amino‐3‐methylimidazo[4,5‐f]quinoline], in the data set with pig ear skin explants [4], the “Metabolites detected in the skin or culture media” value is “no metabolites were detected”. In data set [5] (human skin), the “Metabolites detected in the skin or culture media” value was “no metabolites were detected”. Further, in the data set with pig ear skin explants [1], the “% Radioactivity” value worked out at 30.1 ± 2.3%, the “Mass balance (% of applied dose at end of incubation)” value is given as 96.3 ± 6.6 % of applied dose, the Medium radioactivity was 54.8 ± 8.3 % of the applied dose and the Skin radioactivity is 33.6 ± 5.1 % of the applied dose. Moreover, the Skin surface radioactivity in the data set with pig ear skin explants [1] was 7.8 ± 3.9 % of the applied dose. Further, in data set [2], the “% Radioactivity” value turned out to be 10.5 ± 13.4%, the “Mass balance (% of applied dose at end of incubation)” value was 94.5 ± 10.6 % of applied dose, the Medium radioactivity was 10.5 ± 13.4 % of the applied dose and the Skin radioactivity is listed as 66.0 ± 12.3 % of the applied dose. In data set [2], the Skin surface radioactivity is reported as 17.9 ± 3.7 % of the applied dose. Moreover, in data set [3], the LogP is given as 1.47 and the Maximum water solubility is 530 µg/mL.
For `Oc1cccc(O)c1` [Resorcinol], the “Parent compound in the medium after 24 h” value in the data set on pig ear skin explants [4] is 1.8 ± 0.8 % Applied dose. Moreover, in data set [5] (both, human, 24 h), the “Glucuronide conjugate as share of the total metabolites observed” value is > 78 % of the total metabolites, the “Parent compound in the medium after 24 h” value came to 4.8 ± 0.7 % Applied dose, the “Sulfate conjugate as share of the total metabolites” value is reported as 19 % of the total metabolites and the “Total metabolites in the medium after 24 h” value is 41.9 ± 0.6 % Applied dose. Moreover, in the data set with pig ear skin explants [1], the “% Radioactivity” value was found to be 58.6 ± 7.6%, the “Mass balance (% of applied dose at end of incubation)” value is 92.7 ± 5.92 % of applied dose and the Medium radioactivity is 71.0 ± 7.1 % of the applied dose. Besides, in data set [2], the “Mass balance (% of applied dose at end of incubation)” value is given as 94.2 ± 3.5 % of applied dose and the Medium radioactivity was 54.4 ± 1.5 % of the applied dose. In addition, the LogP in data set [3] is on record as 0.80.
Regarding `COc1cc(C=O)ccc1O` [Vanillin], in the data set with pig ear skin explants [4], the “Number of metabolites detected in the culture medium” value (“Number of metabolites detected” below) is on record as “Six” and the “Parent compound in the medium after 24 h” value was 0.1 ± 0.04 % Applied dose. Further, in data set [5] (both, human, 24 h), the “Parent compound in the medium after 24 h” value was found to be 0.3 ± 0.09 % Applied dose and the “Total metabolites in the medium after 24 h” value worked out at 51.1 ± 2.3 % Applied dose. Moreover, in the data set with pig ear skin explants [1], the “% Radioactivity” value worked out at 58.6 ± 5.2%, the “Mass balance (% of applied dose at end of incubation)” value is listed as 90.7 ± 1.7 % of applied dose and the Medium radioactivity is 77.4 ± 5.1 % of the applied dose. For the same molecule, in data set [2], the “% Radioactivity” value came out at 60.0 ± 7.8%, the “Mass balance (% of applied dose at end of incubation)” value is reported as 104.4 ± 6.0 % of applied dose and the Medium radioactivity is recorded as 60.0 ± 7.8 % of the applied dose. Also, the Maximum water solubility in data set [3] is 8500 µg/mL.
For `OCC=Cc1ccccc1` [Cinnamyl alcohol], in the data set with pig ear skin explants [4], the “Parent compound in the medium after 24 h” value was 0.0 % Applied dose. Also, the “Number of metabolites detected” value in data set [5] (human skin, 24 h) was “eight”. In addition, in data set [5] (human skin, 24 h, mean ± SEM), the “Parent compound in the medium after 24 h” value is 0.2 ± 0.03 % Applied dose. Moreover, in the data set with pig ear skin explants [1], the “% Radioactivity” value is listed as 63.2 ± 1.9%, the “Mass balance (% of applied dose at end of incubation)” value is recorded as 96.8 ± 1.9 % of applied dose, the Medium radioactivity is 87.1 ± 2.7 % of the applied dose and the Skin radioactivity is recorded as 8.5 ± 0.8 % of the applied dose. The Skin surface radioactivity with pig ear skin explants [1] is given as 1.2 ± 1.1 % of the applied dose. Further, in data set [2], the “% Radioactivity” value worked out at 83.5 ± 4.8 %, the “Mass balance (% of applied dose at end of incubation)” value is on record as 99.9 ± 5.8 % of applied dose, the Medium radioactivity is 83.5 ± 4.8 % of the applied dose and the Skin radioactivity is reported as 16.2 ± 3.2 % of the applied dose. Further, the Skin surface radioactivity in data set [2] is given as 0.2 ± 0.1 % of the applied dose. In data set [3], the LogP was 1.95 and the Maximum water solubility is 4000 µg/mL.
On to `CCOc1ccc2ccc(=O)oc2c1` [7‐EC, 7‐ethoxycoumarin], for which, in the data set on pig ear skin explants [4], the “Number of metabolites detected” value was “three” and the “Parent compound in the medium after 24 h” value is recorded as 60.8 ± 0.6 % Applied dose. Also, in data set [5] (human skin, 24 h), the “Number of metabolites detected” value is reported as “three”. The “Parent compound in the medium after 24 h” value in data set [5] (human skin, 24 h, mean ± SEM) turned out to be 57.7 ± 3.1 % Applied dose. In the data set with pig ear skin explants [1], the “% Radioactivity” value was 62.5 ± 2.7%, the “Mass balance (% of applied dose at end of incubation)” value is 100.0 ± 3.8 % of applied dose, the Medium radioactivity is recorded as 89.7 ± 3.4 % of the applied dose and the Skin radioactivity is 9.3 ± 0.4 % of the applied dose. The Skin surface radioactivity in the data set with pig ear skin explants [1] was 1.0 ± 0.1 % of the applied dose. In data set [2], the “Mass balance (% of applied dose at end of incubation)” value is 91.9 ± 3.8 % of applied dose, the Medium radioactivity was 66.7 ± 3.5 % of the applied dose, the Skin radioactivity is recorded as 24.1 ± 6.2 % of the applied dose and the Skin surface radioactivity is 1.4 ± 0.2 % of the applied dose. Besides, in data set [3], the log partition coefficient (LogP) was 2.30 and the Maximum water solubility was 780 µg/mL.
